The assay deals with Nrf2 and downstream antioxidant enzyme in RAW264.7 cells. Briefly: Western blot of Nrf2 targeting proteins. The format is cell-based, mouse. The following applies: LPS, same concentration. How it is done: Anti-Nrf2 (ab62352) and anti-IL-1β (ab45692) antibodies were purchased from Abcam Technology (England). Anti-HO-1 (SC-136960) and anti-NQO1 (SC-271116) antibodies were purchased from Santa Cruz Biotechnology (California, USA). Anti-β-Actin (60008-1-Ig) and anti-GCLM (14241-1-AP) antibodies were purchased from Proteintech Group (USA). Cell sampling and western blot were performed as previously reported (M.-C. Lu, J.-A. Ji, Y.-L. Jiang, Z.-Y. Chen, Z.-W. Yuan, Q.-D. You, Z.-Y. Jiang, An inhibitor of the Keap1-Nrf2 protein-protein interaction protects NCM460 colonic cells and alleviates experimental colitis, Sci. Rep., 6 (2016) 26585).
To determine the effect of pro2 on Nrf2-ARE-driven gene transcription, mRNA levels of Nrf2 and three downstream genes, HO-1, NQO1 and GCLM, were examined ((A) of FIG. 4 to (D) of FIG. 4). […] The protein levels of the above genes were determined by western blot.

Molecules are shown by their SMILES.

Turning to `COc1ccc(S(=O)(=O)Nc2ccc(N(CC(=O)N3CCSC3=O)S(=O)(=O)c3ccc(OC)cc3)c3ccccc23)cc1` [pro2], the “protein levels of Nrf2 and downstream antioxidant enzyme” value is “significantly increased levels of Nrf2 and downstream antioxidant enzyme”.

These data come from patent publication US12383535B2, “Hydrogen peroxide-responsive KEAP1-NRF2 ppi inhibitor prodrug, and preparation method therefor” (CHINA PHARMACEUTICAL UNIVERSITY, priority 2019, dated 2025).
